Among the data in patent US20090062899A1, “COMPOSITE STENT WITH POLYMERIC COVERING AND BIOACTIVE COATING” (NFOCUS NEUROMEDICAL, INC., priority 2001, published 2009) are endothelial cell growth values, retold here.

The experiment relates to endothelial cells. In words: cell growth on surfaces carrying the bioactive (P15) coating. The conditions noted are these: polymer sleeve covered with the peptide. It counts as cell-based. The source says: Chemical/biological testing such as MA (amino acid analysis), in vitro cell cultures followed by SEM (scanning electron microscopy), and in vivo testing can be used for evaluating the coatings of the present invention.

“H-Gly-Thr-Pro-Gly-Pro-Gln-Gly-Ile-Ala-Gly-Gln-Arg-Gly-Val-Val-OH (H-GTPGPQGIAGQRGVV-OH; also: covalently bound coating on PTFE) [P15]”: the endothelial cell growth entry was “stimulated”.
